Laboratory results as given in patent US20210255193A1, “LYSINE REACTIVE PROBES AND USES THEREOF” (The Scripps Research Institute, priority 2017, published 2021).

Key:
Assay in all cases: competitive isoTOP-ABPP
Type in all cases: binding
PLIN3 Perilipin-3 = biological target: T1, PLIN3 Perilipin-3 (Homo sapiens, UniProt O60664)
T1 construct: isoTOP-ABPP experiments performed in cell lysates (in vitro); endogenous in cells; host or cells: MDA-MB-231 soluble lysate
T1 sequence (O60664 1-434): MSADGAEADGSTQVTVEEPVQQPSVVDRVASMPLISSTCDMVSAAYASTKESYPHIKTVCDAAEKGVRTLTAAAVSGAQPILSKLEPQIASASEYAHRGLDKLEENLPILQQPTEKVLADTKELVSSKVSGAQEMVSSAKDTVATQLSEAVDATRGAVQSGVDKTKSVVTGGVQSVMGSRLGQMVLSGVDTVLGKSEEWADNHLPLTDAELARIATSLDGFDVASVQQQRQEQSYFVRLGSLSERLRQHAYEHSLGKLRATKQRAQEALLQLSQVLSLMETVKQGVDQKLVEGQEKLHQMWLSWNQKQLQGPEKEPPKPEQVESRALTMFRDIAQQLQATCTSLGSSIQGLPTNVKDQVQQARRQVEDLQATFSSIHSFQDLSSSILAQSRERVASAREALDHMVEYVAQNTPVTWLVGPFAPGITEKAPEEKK
Description: (§1) In vitro covalent fragment treatment for isoTOP-ABPP. All compounds were made up as solutions in DMSO (100×) and were used at a final concentration of 50 μM for activated esters and 100 μM for guanidinylating agents. For each profiling sample, 0.5 ml of lysate was treated with 5 μl of the 100× compound stock solution or 5 μl of DMSO. Samples were treated with activated esters for
(§2) STP-alkyne labeling and click chemistry. For concentration-dependent reactivity measurements by isoTOP-ABPP, 0.5 ml proteome aliquots were treated at ambient temperature with 1 mM STP-alkyne 1 (5 μl of 100 mM stock in DMSO) and 0.1 mM STP alkyne 1 (5 μl of 10 mM stock in DMSO), respectively. For competitive isoTOP-ABPP, after in vitro fragment treatment (detailed above), the samples were labeled for 1 h at ambient temperature with 0.1 mM STP-alkyne 1 (5 μl of 10 mM stock in DMSO). Samples were conjugated by copper-mediated azide-alkyne cycloaddition (CuAAC) to either the light (1 mM STP-alkyne or fragment treated) or heavy (0.1 mM STP-alkyne or DMSO treated) TEV tags (10 μl of 5 mM stocks in DMSO, final concentration=100 μM) using tris(2-carboxyethyl)phosphine hydrochloride
(§3) R value calculation and processing. The ratios of light and heavy MS1 peaks for each unique peptide were quantified with a CIMAGE software using default parameters (3 MS1 acquisitions per peak and signal to noise threshold set to 2.5). For reactivity measurements by isoTOP-ABPP, the R value was calculated from the ratio of MS1 peak areas, comparing the 1 mM STP alkyne sample (light TEV tag) with the 0.1 mM STP alkyne sample (heavy TEV tag). For competitive isoTOP-ABPP, the R value was calculated from the ratio of MS1 peak areas, comparing the DMSO treated sample (heavy TEV tag) with the compound treated sample (light TEV tag). […] Ratios for unique peptide entries are calculated for each experiment; overlapping peptides with the same modified lysine (for example, different charge states, MudPIT chromatographic steps or tryptic termini) are grouped together and the median ratio is reported as the final ratio (R). The peptide ratios reported by CIMAGE were further filtered to ensure the removal or correction of low-quality ratios in each individual data set. The quality filters applied were the following: removal of half tryptic peptides; for ratios with high standard deviations from the median (90% of the median or above) the lowest ratio was taken instead of the median; removal of peptides with R=20 and only a single MS2 event triggered during the elution of the parent ion; manual annotation of all the peptides with ratios of 20, removing any peptides with low quality elution profiles that remained after the previous curation steps (only done for competitive isoTOP-ABPP).
(§4) Cross-data processing for fragment screening. For compound treated samples, biological replicates of the same condition were averaged, if the standard deviation was below 60% of the mean; otherwise, for lysines with at least one R value <4 for a particular compound, the lowest value of the ratio set was taken. For lysines, where all R values for a particular compound were ≥4, the average was reported. For peptides containing several possible modified lysines, the lysine with the highest number of quantification events was used for analysis and the remaining, redundant peptides were reported as alternative modification sites. Peptides included in the aggregate dataset (those used for further bioinformatics and statistical analyses) were required to have been quantified in 2 experiments for competitive isoTOP-ABPP. Lysines were categorized as liganded, if they had at least one ratio R≥4 (hit fragments). For liganded lysines with R=20 for all liganding events, lysines were required to have been quantified with R=20 in two separate experiments and were further required to have been quantified with R<20 in one additional experiment.

[1] = biological target: T2, SRP54 Signal recognition particle 54 kDa protein (Homo sapiens, UniProt P61011)
T2 construct: isoTOP-ABPP experiments performed in cell lysates (in vitro); endogenous in cells; host or cells: soluble proteome of human cancer cell lines (MDA-MB-231, Ramos, Jurkat)
T2 sequence (P61011 whole entry): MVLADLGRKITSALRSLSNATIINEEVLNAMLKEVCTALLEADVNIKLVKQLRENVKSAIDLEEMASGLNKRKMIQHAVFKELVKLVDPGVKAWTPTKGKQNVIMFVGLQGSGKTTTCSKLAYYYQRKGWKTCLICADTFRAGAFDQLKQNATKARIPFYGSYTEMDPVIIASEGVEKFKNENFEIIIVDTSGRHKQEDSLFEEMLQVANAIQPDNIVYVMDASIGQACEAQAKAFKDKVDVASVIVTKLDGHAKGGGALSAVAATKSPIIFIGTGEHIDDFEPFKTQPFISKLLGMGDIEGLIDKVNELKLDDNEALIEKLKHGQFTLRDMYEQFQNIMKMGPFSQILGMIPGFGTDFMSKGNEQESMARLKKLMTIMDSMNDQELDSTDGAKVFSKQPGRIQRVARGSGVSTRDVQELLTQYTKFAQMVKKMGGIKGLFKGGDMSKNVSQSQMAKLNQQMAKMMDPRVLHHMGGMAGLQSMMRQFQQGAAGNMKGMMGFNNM
Description: as §1, §2, §3, §4

[2] = biological target: T3, ACBD3 Golgi resident protein GCP60 (Homo sapiens, UniProt Q9H3P7)
T3 construct: isoTOP-ABPP experiments performed in cell lysates (in vitro); endogenous in cells; host or cells: soluble proteome of human cancer cell lines (MDA-MB-231; Ramos and Jurkat also prepared)
T3 sequence (Q9H3P7 1-528): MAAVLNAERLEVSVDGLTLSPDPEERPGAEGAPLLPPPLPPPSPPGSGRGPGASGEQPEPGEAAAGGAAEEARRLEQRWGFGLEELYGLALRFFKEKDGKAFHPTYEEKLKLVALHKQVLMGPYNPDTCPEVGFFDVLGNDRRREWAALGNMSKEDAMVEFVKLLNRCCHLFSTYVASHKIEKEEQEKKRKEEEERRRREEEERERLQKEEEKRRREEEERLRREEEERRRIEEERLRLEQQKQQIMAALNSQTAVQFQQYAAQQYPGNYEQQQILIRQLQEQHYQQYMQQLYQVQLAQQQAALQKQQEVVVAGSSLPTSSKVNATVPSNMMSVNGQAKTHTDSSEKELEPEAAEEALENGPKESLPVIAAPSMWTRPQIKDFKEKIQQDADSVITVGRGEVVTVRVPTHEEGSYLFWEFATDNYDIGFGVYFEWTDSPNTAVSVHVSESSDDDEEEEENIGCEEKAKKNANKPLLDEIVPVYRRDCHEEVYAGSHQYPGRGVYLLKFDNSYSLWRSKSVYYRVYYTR
Description: as §1, §2, §3, §4

Compound | isoTOP-ABPP ratio, lysine O60664_K257 (PLIN3 Perilipin-3; 50 uM_231_sol_in vitro) | isoTOP-ABPP ratio, lysine P61011_K81 ([1]; 50 uM_231_sol_in vitro) | isoTOP-ABPP ratio, lysine Q9H3P7_K117 ([2]; 50 uM_231_sol_in vitro) | isoTOP-ABPP ratio, lysine O60664_K140 (PLIN3 Perilipin-3; 50 uM_231_sol_in vitro) | isoTOP-ABPP ratio, lysine O60664_K140 (PLIN3 Perilipin-3; 100 uM_231_sol_in vitro) | isoTOP-ABPP ratio, lysine P61011_K81 ([1]; 100 uM_231_sol_in vitro) | isoTOP-ABPP ratio, lysine Q9H3P7_K117 ([2]; 100 uM_231_sol_in vitro)
O=C(ON1C(=O)CCC1=O)c1cc(C(F)(F)F)cc(C(F)(F)F)c1 [fragment 46, 3,5-Bis(trifluoromethyl)benzoic acid NHS ester] | 0.6 | 0.9 | 7.7 | – | – | – | –
O=C(Oc1c(F)c(F)cc(F)c1F)c1cc(C(F)(F)F)cc(C(F)(F)F)c1 [fragment 48, 2,3,5,6-Tetrafluorophenyl 3,5-bis(trifluoromethyl)benzoate] | – | 1.1 | 0.9 | 1.3 | – | – | –
COC(=O)NC(=NC(=O)OCC1c2ccccc2-c2ccccc21)n1cccn1 [fragment 49, N-Methoxycarbonyl-N′-9-fluorenylmethoxycarbonyl-pyrazole-1-carboxamidine] | – | – | – | – | 3.0 | 1.0 | 13.9
NC(=O)c1cc(C(F)(F)F)cc(C(F)(F)F)c1 [fragment 51, reference compound] | 1.0 | 0.7 | 0.9 | – | – | – | –
